Measured values as given in US20180186742A1, “PICOLINAMIDES AS FUNGICIDES” (Dow AgroSciences LLC, priority 2017, published 2018).
Like-named read-outs stand apart in the source and are kept apart here.

What was measured:
Format in all cases: in vivo
[1] = tested on: Phakopsora pachyrhizi; assay: Asian soybean rust (PHAKPA), disease control on soybean seedlings; conditions: High volume application at 25 ppm
Experimental: Technical grades of materials were dissolved in acetone, which were then mixed with nine volumes of water containing 0.011% Tween 20. The fungicide solutions were applied onto soybean seedlings using an automated booth sprayer to run-off. All sprayed plants were allowed to air dry prior to further handling.
Soybean plants (variety Williams 82) were grown in soil-less Metro mix, with one plant per pot. Two week old seedlings were used for testing. Plants were inoculated either 3 days prior to or 1 day after fungicide treatments. Plants were incubated for 24 h in a dark dew room at 22° C. and 100% relative humidity then transferred to a growth room at 23° C. for disease to develop. Disease severity was assessed on the sprayed leaves.

[2] = tested on: Zymoseptoria tritici; assay: Leaf blotch of wheat (SEPTTR), disease control on wheat seedlings; conditions: low volume application at 121.5 g/H
Outline: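 Z. tritici spores were inoculated onto wheat seedlings (Yuma, first leaf emerged) either before or after treatment. Treatment was an automated spray to run-off of acetone/Triton X-100 water solutions, or a track spray of EC formulations with 0.1% Trycol 5941. Plants were held in dew chambers at 20 °C and then a greenhouse at 20 °C. First-leaf severity (0–100%) was converted to percent control against untreated plants.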

[3] = tested on: Puccinia triticina; assay: Wheat brown rust (PUCCRT), disease control on wheat seedlings; conditions: low volume application at 121.5 g/H
Outline: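 Compounds in acetone, diluted with nine volumes of water containing 110 ppm Triton X-100, sprayed to run-off on first-leaf Yuma wheat seedlings; track-spray tests used EC formulations with 0.1% Trycol 5941. Puccinia triticina spores applied before or after treatment. Overnight dark dew room at 22° C, 100% humidity, then greenhouse at 24° C.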

[4] = 24 h, 1 Day Protectant, read-out: PHAKPA 1DP disease control rating
[5] = 72 h, 3 Day Curative, read-out: PHAKPA 3DC disease control rating
[6] = 24 h, 1 Day Protectant, read-out: SEPTTR disease control, 1DP, LV activity
[7] = 72 h, 3 Day Curative, read-out: SEPTTR disease control, 3DC, LV activity
[8] = 24 h, 1 Day Protectant, read-out: PUCCRT disease control, 1DP, LV activity
[9] = 72 h, 3 Day Curative, read-out: PUCCRT disease control, 3DC, LV activity

| SMILES | pest or weed control at 25 ppm [1, 4] [%] | pest or weed control at 25 ppm [1, 5] [%] | pest or weed control at 121.5 g/ha [2, 6] [%] | pest or weed control at 121.5 g/ha [2, 7] [%] | pest or weed control at 121.5 g/ha [3, 8] [%] | pest or weed control at 121.5 g/ha [3, 9] [%] |
| --- | --- | --- | --- | --- | --- | --- |
| CCC(C)[C@H](c1ccc(F)cc1C)[C@H](C)OC(=O)[C@H](C)NC(=O)c1nccc(OC)c1OC(C)=O (stereo partly drawn) [Compound 182] | < 80 | < 80 | < 80 | > 80 | > 80 | < 80 |
| COc1ccnc(C(=O)N[C@@H](C)C(=O)O[C@@H](C)[C@@H](c2ccc(F)cc2C)C2CCC2)c1OC(C)=O [Compound 183] | < 80 | < 80 | < 80 | > 80 | < 80 | < 80 |
| COc1ccnc(C(=O)N[C@@H](C)C(=O)O[C@@H](C)[C@H](c2ccc(F)cc2C)C2CCCC2)c1OC(C)=O [Compound 184] | > 80 | < 80 | > 80 | > 80 | > 80 | > 80 |
| COc1ccnc(C(=O)N[C@@H](C)C(=O)O[C@@H](C)[C@H](c2ccc(F)cc2C)C2CCCCC2)c1OC(C)=O [Compound 185] | > 80 | < 80 | > 80 | > 80 | > 80 | < 80 |
| CCC(C)[C@@H](c1ccc(F)cc1C)[C@H](C)OC(=O)[C@H](C)NC(=O)c1nccc(OC)c1OC(C)=O (stereo partly drawn) [Compound 188] | > 80 | > 80 | > 80 | > 80 | > 80 | < 80 |
| COc1ccnc(C(=O)N[C@@H](C)C(=O)O[C@@H](C)[C@H](c2ccc(F)cc2C)C2CCC2)c1OC(C)=O [Compound 189] | > 80 | < 80 | > 80 | > 80 | > 80 | < 80 |
| COc1ccnc(C(=O)N[C@@H](C)C(=O)O[C@H](C)[C@H](c2ccc(F)cc2C)C2CCCC2)c1OC(C)=O [Compound 190] | < 80 | < 80 | < 0 | < 80 | < 0 | < 0 |
| COc1ccnc(C(=O)N[C@@H](C)C(=O)O[C@H](C)[C@H](c2ccc(F)cc2C)C2CCCCC2)c1OC(C)=O [Compound 191] | < 80 | < 0 | < 80 | < 80 | < 0 | < 80 |
| COc1ccnc(C(=O)N[C@@H](C)C(=O)O[C@H](C)[C@H](c2ccc(F)cc2C)C(C)C)c1OC(C)=O [Compound 192] | > 80 | < 80 | < 0 | > 80 | > 80 | < 80 |
| COc1ccnc(C(=O)N[C@@H](C)C(=O)O[C@@H](C)[C@@H](c2ccc(F)cc2C)C2CCCC2)c1OCOC(C)=O [Compound 193] | < 80 | < 80 | < 0 | < 80 | < 80 | < 80 |
| COc1ccnc(C(=O)N[C@@H](C)C(=O)O[C@@H](C)[C@@H](c2ccc(F)cc2C)C2CCCCC2)c1OCOC(C)=O [Compound 194] | < 80 | < 80 | < 80 | > 80 | < 80 | < 0 |
| COc1ccnc(C(=O)N[C@@H](C)C(=O)O[C@@H](C)[C@H](c2ccc(F)cc2C)C2CCCC2)c1OCOC(C)=O [Compound 195] | > 80 | < 80 | > 80 | > 80 | > 80 | > 80 |
| CCC(C)[C@@H](c1ccc(F)cc1C)[C@H](C)OC(=O)[C@H](C)NC(=O)c1nccc(OC)c1OCOC(C)=O (stereo partly drawn) [Compound 196] | > 80 | < 80 | > 80 | > 80 | > 80 | > 80 |
| COc1ccnc(C(=O)N[C@@H](C)C(=O)O[C@@H](C)[C@H](c2ccc(F)cc2C)C2CCC2)c1OCOC(C)=O [Compound 197] | > 80 | > 80 | > 80 | > 80 | > 80 | > 80 |
| COc1ccnc(C(=O)N[C@@H](C)C(=O)O[C@H](C)[C@H](c2ccc(F)cc2C)C2CCCC2)c1OCOC(C)=O [Compound 198] | < 80 | < 80 | < 80 | < 80 | < 80 | < 0 |
| COc1ccnc(C(=O)N[C@@H](C)C(=O)O[C@H](C)[C@H](c2ccc(F)cc2C)C2CCCCC2)c1OCOC(C)=O [Compound 199] | < 80 | < 80 | > 80 | < 80 | < 80 | < 0 |
| COc1ccnc(C(=O)N[C@@H](C)C(=O)O[C@@H](C)[C@@H](c2ccc(C)cc2C)C(C)C)c1OC(C)=O [Compound 200] | < 80 | < 0 | < 0 | < 80 | < 80 | < 80 |
| COc1ccnc(C(=O)N[C@@H](C)C(=O)O[C@@H](C)[C@@H](c2ccc(C)cc2C)C2CCCC2)c1OC(C)=O [Compound 201] | < 80 | < 0 | < 80 | < 80 | > 80 | < 80 |
| COc1ccnc(C(=O)N[C@@H](C)C(=O)O[C@@H](C)[C@@H](c2ccc(C)cc2C)C2CCCCC2)c1OC(C)=O [Compound 202] | < 80 | < 0 | < 80 | < 80 | > 80 | < 0 |
| CCC(C)[C@H](c1ccc(C)cc1C)[C@H](C)OC(=O)[C@H](C)NC(=O)c1nccc(OC)c1OC(C)=O (stereo partly drawn) [Compound 203] | > 80 | < 0 | < 80 | < 80 | < 80 | < 80 |
| COc1ccnc(C(=O)N[C@@H](C)C(=O)O[C@@H](C)[C@@H](c2ccc(C)cc2C)C(C)C)c1OCOC(C)=O [Compound 204] | < 80 | < 0 | < 0 | < 80 | > 80 | < 80 |
| COc1ccnc(C(=O)N[C@@H](C)C(=O)O[C@@H](C)[C@@H](c2ccc(C)cc2C)C2CCCC2)c1OCOC(C)=O [Compound 205] | < 80 | < 0 | < 80 | < 80 | > 80 | < 0 |
| COc1ccnc(C(=O)N[C@@H](C)C(=O)O[C@@H](C)[C@@H](c2ccc(C)cc2C)C2CCCCC2)c1OCOC(C)=O [Compound 206] | < 80 | < 0 | < 80 | < 80 | < 80 | < 0 |
| CCC(C)[C@H](c1ccc(C)cc1C)[C@H](C)OC(=O)[C@H](C)NC(=O)c1nccc(OC)c1OCOC(C)=O (stereo partly drawn) [Compound 207] | > 80 | < 0 | < 80 | > 80 | > 80 | < 80 |
